The record followed here is US9357792B2, “Fermented cereal product obtained by fermentation of rye bran with a Lactobacillus curvatus strain” (priority 2001, dated 2016).

In test [1] the test system is H. pylori CCUG17875 binding to the Lewis b antigen. Put plainly: RIA inhibition assay: H. pylori pre-treated with product, then binding to 125I-labeled Lewis b conjugate. Details: species or system Helicobacter pylori. Conditions: pretreated with 2 mM for 1 hour; FIG. 1B.
Test [2] concerns H. pylori CCUG17875 adherence to human gastric mucosa. Put plainly: H. pylori adherence in situ to histo-sections of human gastric mucosa. Conditions: after pretreatment with 2 mM. It counts as cell-based, Helicobacter pylori. As for the experimental part: Pretreatment of strain CCUG 17875 with soluble Lewis b antigen, with L. curvatus fermented rye bran and with ferric quinate is shown. Here, bacterial binding to 10 different gastric surface epithelium regions were estimated (value p<0.001(***), value p<0.01(**), value p<0.05(*)).
Bacterial adherence in situ was performed as described by Falk et al., 1993. Human biopsy samples of healthy gastric tissue were obtained from the Division for Gastroenterology, Norrland University Hospital, Umea, Sweden. The biopsies were taken from the antrum part of the stomach, then they were fixed in 4% buffered formalin and finally they were embedded in paraffin wax. Sections were stained with hematoxylin and eosin following standard procedures. H. pylori were first labeled with FITC, and bacterial adherence to the gastric mucous was then analyzed by the ability of L. curvatus-fermented rye-bran to inhibit bacterial adherence to re-hydrated histo-sections of human gastric epithelial cells in situ. For comparative inhibition analyzes, H. pylori was pre-incubated with Lewis b conjugate (10 μg/mL), and fermented rye-bran (1 mL) for 1 hour at room temperature. Then, as described above, the H. pylori bacterial cells were applied to the histo-sections. […]

For `O=C(O)[C@]1(O)C[C@@H](O)[C@@H](O)[C@H](O)C1` [Quinic Acid, reference compound], the “inhibition of H. pylori binding to the Lewis b antigen” value in test [1] is “no inhibition”.

As to Ferric Quinate, in test [1], the “inhibition of H. pylori binding to the Lewis b antigen” value is 69%. In addition, in test [2], the “adherence of strain CCUG17875 to the gastric tissue section epithelium” value is “similarly much reduced”.
